Results as given in US9994560B2, “HPTP-β inhibitors” (Aerpio Therapeutics Inc., priority 2014, dated 2018).
Values after ≈ are worked out from the molar mass of the structure shown. Values joined by “and” are separate entries in the source; they are usually repeats but may differ in a detail not shown here. Identical values can stand only once.

How the values were obtained:
Tie2 = Tie2 phosphorylation, immunoprecipitation and western blot in HUVECs; type: cell-based, human; conditions: HUVECs treated for 10 minutes; anti-phosphotyrosine western blot (FIG. 44)
Experimental: Human umbilical vein endothelial cells (HUVECs) were isolated freshly from human placenta, grown in endothelial growth medium, and used before passage 6. To evaluate the effects of the compounds on phosphorylation of Tie2 and downstream signaling molecules, cells were serum-starved in endothelial basal medium without added growth factors for 3 hours before stimulation. Cells were treated for 10 minutes with vehicle (DMSO), or compounds A, B, C, or D in DMSO. Cells were lysed in RIPA buffer (150 mM NaCl, 1% IGEPAL CA-630, 0.05% sodium deoxycholate, 0.1% SDS, 20 mM Tris-HCl at pH 7.6, 1 mM EDTA, 1 mM NaF, 1 mM sodium orthovanadate, 5 mM benzamidine) plus complete protease inhibitor cocktail tablets. […] Whole cell lysates were used to quantify phospho-AKT with the PathScan Phospho-Akt1 (Ser473) Sandwich ELISA Kit according to the manufacturer's instructions. Relative AKT phosphorylation in each experiment was quantified by OD450.
FIG. 44 is a western blot of Tie2 immunoprecipitated from endothelial cells treated with DMSO control or the indicated compounds (D, C, B, or A), and then sequentially probed with an anti-Tie2 antibody to detect total Tie2 (lower blot) and an anti-phosphotyrosine antibody to detect phosphorylated Tie2 (upper blot). […] An increase in Tie2 phosphorylation compared to the DMSO control was not detected for compounds A, B, and C.

[1] = tested on: Akt phosphorylation, a measure of Tie2 activation; test: Akt phosphorylation ELISA (PathScan Phospho-Akt1 (Ser473) Sandwich ELISA) in HUVECs; type: cell-based, human; conditions: 10 minutes
Experimental: Human umbilical vein endothelial cells (HUVECs) were isolated freshly from human placenta, grown in endothelial growth medium, and used before passage 6. To evaluate the effects of the compounds on phosphorylation of Tie2 and downstream signaling molecules, cells were serum-starved in endothelial basal medium without added growth factors for 3 hours before stimulation. Cells were treated for 10 minutes with vehicle (DMSO), or compounds A, B, C, or D in DMSO. Cells were lysed in RIPA buffer (150 mM NaCl, 1% IGEPAL CA-630, 0.05% sodium deoxycholate, 0.1% SDS, 20 mM Tris-HCl at pH 7.6, 1 mM EDTA, 1 mM NaF, 1 mM sodium orthovanadate, 5 mM benzamidine) plus complete protease inhibitor cocktail tablets. Tie2 was then immunoprecipitated from cell lysates with a mouse monoclonal antibody (clone 33) and probed sequentially with mouse monoclonal anti-phosphotyrosine (clone 4G10) and anti-Tie2 (clone 33). Whole cell lysates were used to quantify phospho-AKT with the PathScan Phospho-Akt1 (Ser473) Sandwich ELISA Kit according to the manufacturer's instructions. Relative AKT phosphorylation in each experiment was quantified by OD450.
FIG. 45 represents data from an ELISA to determine Akt phosphorylation, a measure of Tie2 activation. Consistent with FIG. 44, compound D had the strongest effect on Tie2 activation, as determined by the high levels (OD450=1.2) of relative Akt phosphorylation even at the lowest dose of compound D (1 μg/mL). […] Akt phosphorylation further increased (OD450=0.45) when 10 μg/mL of compound A was used.

[2] = tested on: human subjects with visual acuity loss due to diabetic macular edema; test: Study of human subjects with diabetic macular edema given the compound subcutaneously, then intravitreal anti-VEGF agent; type: in vivo
Experimental: Described herein is a study of four human subjects with visual acuity loss due to diabetic macular edema (central retinal thickness [CRT] of more than 325 microns and best corrected visual acuity less than 70 letters) that were treated with subcutaneous injections of 5 mg of 4-{(S)-2-[(S)-2-methoxycarbonyl-amino]-3-phenylpropanamido]-2-[2-(thiophen-2-yl)thiazol-4-yl]ethyl}phenylsulfamic acid twice a day for 28 days. […] At any time during the course of the study, investigators could administer additional therapy of intravitreal injection of an anti-VEGF agent, for example, ranibizumab, bevacizumab, and/or aflibercept, if considered by the investigator to be medically necessary. Retinal thickness as measured by ocular coherence tomography and best-corrected visual acuity as measured by a standard vision test (ETDRS) were assessed at regular intervals during the 28 day active treatment phase and through the 2 month post-treatment observation phase, (Screening, Day 1 [baseline], Day 7, Day 14, Day 21, Day 28, Day 42, Day 56 and Day 84). The main efficacy outcomes for the study were change in CRT and visual acuity over time with treatment.
FIG. 47 depicts the results of a study wherein 4 patients received 5 mg of 4-{(S)-2-[(S)-2-methoxycarbonylamino]-3-phenylpropanamido]-2-[2-(thiophen-2-yl)thiazol-4-yl]ethyl}phenylsulfamic acid subcutaneously twice daily for 28 days and subsequently were treated in one or both eyes (7 eyes total) with either ranibizumab (0.3 or 0.5 mg) or aflibercept (2 mg) by intravitreal injection at the discretion of the study investigator.
FIG. 49 depicts the increased visual acuity of a study wherein 4 patients received 5 mg of 4-{(S)-2-[(S)-2-methoxycarbonylamino]-3-phenylpropanamido]-2-[2-(thiophen-2-yl)thiazol-4-yl]ethyl}phenylsulfamic acid subcutaneously twice daily for 28 days, and subsequently were treated with either ranibizumab (0.3 or 0.5 mg) or aflibercept (2 mg) by intravitreal injection at the discretion of the study investigator. FIG. 49 is read as follows. […] The mean change in Visual Acuity was 9 letters, approximately 3 to 5 letters more improvement than seen in the benchmark study of ranibizumab alone depicted in FIG. 48.
FIG. 50 represents the results of a single patient. The eye having the greater Central Foveal Thickness (CFT) was chosen as the study eye. From day 1, the patient was given 5 mg of 4-{(S)-2-[(S)-2-methoxycarbonylamino]-3-phenylpropanamido]-2-[2-(thiophen-2-yl)thiazol-4-yl]ethyl}phenylsulfamic acid subcutaneously twice daily. At week 3 (21 days, indicated by arrow) the fellow eye was treated with 0.5 mg of ranibizumab by injection. At week 6 (42 days, indicated by arrow) the study eye was treated with 0.5 mg of ranibizumab.
FIG. 51 represents the results of a single patient. The eye having the greater CFT was chosen as the Study Eye. The patient from day one was given 5 mg of 4-{(S)-2-[(S)-2-methoxycarbonylamino]-3-phenylpropanamido]-2-[2-(thiophen-2-yl)thiazol-4-yl]ethyl}phenylsulfamic acid subcutaneously twice daily. At week 4 (28 days, indicated by arrow) the fellow eye was rescued with 2 mg of aflibercept. […] At week 6 (42 days, indicated by arrow) the study eye was rescued with 2 mg of aflibercept. […] From onset of the study, a reduction was observed of CFT in the study eye and the fellow eye of approximately 300 μm and 280 μm, respectively.

[3] = Room temperature aqueous solubility with solubilizing agents; type: physicochemical
Source text: The room temperature aqueous solubility (mg/mL) of the compound (4-{(S)-2[(S)-2-methoxycarbonylamino]-3-phenylpropanamido]-2-[2-(thiophen-2-yl)thiazol-4-yl]ethyl}phenylsulfamic acid) in water, HPβCD, Poloxamer 407, and sulfobutylether-β-cyclodextrin, is provided in TABLE III. Solubility in saline for the test compound is reduced presumably due to the common ion effect. All the solubilizing agents tested provided good improvements in aqueous solubility of the test compound.
The solubility (mg/mL) of the test compound in mixtures of HPβCD and PEG400 is illustrated in TABLE IV. Use of either HPβCD or PEG400 individually provided an increase in solubility. However, addition of PEG400 to a mixture of the test compound and HPβCD caused an erosion of solubility, with solubility being inversely proportional to the amount of PEG400.

COC(=O)N[C@@H](Cc1ccccc1)C(=O)N[C@@H](Cc1ccc(NS(=O)(=O)O)cc1)c1csc(-c2cccs2)n1 [Compound D]
Tie2 phosphorylation compared to the DMSO control (Tie2): substantial increase | relative Akt phosphorylation (OD450) ([1]; 1 μg/mL): 1.2 | relative Akt phosphorylation (OD450) ([1]; 3 μg/mL): 3.1 | relative Akt phosphorylation (OD450) ([1]; 10 μg/mL): did not increase further | Central Foveal Reduction, individual patient eyes ([2]; 5 mg sc twice daily 28 days, then ranibizumab or aflibercept intravitreal, 14-28 days post anti-VEGF (FIG. 47), listed as 4-{(S)-2-[(S)-2-methoxycarbonylamino]-3-phenylpropanamido]-2-[2-(thiophen-2-yl)t): 50-100 μm and 150-200 μm and 200-250 μm and 300-350 μm and 350-400 μm and 450-500 μm | improvement of visual acuity ([2]; 5 mg subcutaneously twice a day for 28 days, observed days 28 through 84): Improvement of visual acuity in these subjects was observed | reduction in Central Foveal Thickness relative to ranibizumab injection in the study in FIG. 46 ([2]; compound sc then anti-VEGF versus ranibizumab alone): approximately double | fall in CFT of the fellow eye ([2]; single patient (FIG. 50), 5 mg sc twice daily, fellow eye given 0.5 mg ranibizumab at week 3, by week 4): 350 μm | reduction in CFT in the study eye ([2]; single patient (FIG. 50), day 21 to day 28, after ranibizumab to fellow eye): approximately 250 μm | CFT of the study eye ([2]; single patient (FIG. 50), week 6, before ranibizumab to study eye): approximately 775 μm | CFT of the study eye ([2]; single patient (FIG. 50), week 8): approximately 225 μm | reduction of CFT in the fellow eye from onset of the study ([2]; single patient (FIG. 51)): ~280 μm | Solubility ([3]; 0% HPβCD, 15% PEG400): 30 mg/mL (≈ 51.1 mM) | Solubility ([3]; 0% HPβCD, 30% PEG400): 68 mg/mL (≈ 116 mM) | Solubility ([3]; 15% HPβCD, 0% PEG400): 59 mg/mL (≈ 101 mM) | Solubility ([3]; 15% HPβCD, 5% PEG400): 57 mg/mL (≈ 97.2 mM) | Solubility ([3]; 15% HPβCD, 10% PEG400): 34 mg/mL (≈ 57.9 mM) | Solubility ([3]; 15% HPβCD, 15% PEG400): 6 mg/mL (≈ 10.2 mM)
